# How the values were obtained:
# [1] = test system: Female Crl:CD (SD) BR Rats; experiment: Developmental toxicity study in rats: reproductive performance and fetal development; format: in vivo, rat; settings: for Females pregnant (%) / Fertility index / Litters with resorptions (%) / Number of dead fetuses / Number of females bearing viable fetuses / Number of females pregnant / Number of litters with resorptions / Total number of viable fetuses / Body weight (g) of viable fetuses / Body weight (g) of viable fetuses: Female fetuses / Body weight (g) of viable fetuses: Male fetuses / Number of corpora lutea / Number of female fetuses / Number of implantation sites / Number of males fetuses / Number of resorptions / Postimplantation loss = (resorptions/implantations) / Preimplantation loss = (corpora lutea-implants)/(corpora lutea): Days 6 to 15 of gestation; for Total number of viable fetuses: Day 20; for Body weight (g) of viable fetuses / Body weight (g) of viable fetuses: Female fetuses / Body weight (g) of viable fetuses: Male fetuses / Number of corpora lutea / Number of female fetuses / Number of implantation sites / Number of males fetuses / Number of resorptions / Postimplantation loss = (resorptions/implantations) / Preimplantation loss = (corpora lutea-implants)/(corpora lutea): mean ±SD
# Text: (§1) Safety tests performed on tagatose in its development as a low-calorie sweetener included developmental toxicity studies in rats. Rats are accepted by the US FDA as good models for humans in studying safety and efficacy of food additives and drugs. Newly impregnated rats were placed on various doses of tagatose in their daily diet. Female rats were housed with males nightly in a one-to-one ratio, and each morning inspections for vaginal plugs were made, and in their absence, vaginal smears were taken and tested for sperm. Those females which had been mated were selected for monitoring of fetal development and assigned to tagatose dose groups in a manner so as to provide an equal distribution of mated females among groups and also to equalize the Day 0 gestation mean body weights among the groups. There were 24 mated females in each group. On Days 6-15 of gestation three of the groups received respective total doses of 4,000, 12,000 and 20,000 mg/kg body wt/day administered via gastric intubation in two equally divided doses separated by a four-hour interval. Each dose was administered in 30 ml/kg body weight of distilled, deionized water. […] For a period of 20 days following mating, the rats were observed and measurements taken daily. Upon the 20th day, the rats were killed and a wide variety of physical, toxicological, and fetal developmental parameters was determined for treatment effects. […] However, I noted unpredictable, novel and beneficial effects with respect to fertility and fetal development.
# human = experiment: Examples 1-4: human taking tagatose before and during pregnancy; format: in vivo
# Text: A 70 kg human with a history of difficulty in conceiving begins taking tagatose twice daily at five g per dose, beginning one month before an attempt to conceive. […] A 70 kg human with a history of spontaneous abortions and stillbirths takes tagatose twice daily at five g per dose, beginning one month before an attempt to conceive. […] A 70 kg human takes precautions against giving birth to a below average weight infant by taking tagatose twice daily at five g per dose, beginning one month before an attempt to conceive. […] A 70 kg human inclined toward obesity desires a child, but is concerned that pregnancy may increase their food intake causing weight problems as experienced in their past pregnancies. They take tagatose twice daily at five g per dose, beginning one month before an attempt to conceive. […] They deliver a healthy, normal child.
# Female Crl:CD(SD)BR Rats = experiment: Food consumption in pregnant rats fed D-tagatose; format: in vivo, rat; settings: for Food intake (g/animal) / Food intake (g/kg body wt/day): mean ±SD
# Text: as §1
# One of the common problems associated with pregnancy is overeating which can result in excess weight gain with its concomitant health risks to the mother and fetus. […] This represents a clear health advantage for both dam and fetus receiving tagatose.
# [2] = 4,000 mg/kg/day, Days 0-6 of pregnancy (pretreatment)
# [3] = 4,000 mg/kg/day, Days 6-9 of pregnancy
# [4] = 4,000 mg/kg/day, Days 9-12 of pregnancy
# [5] = 4,000 mg/kg/day, Days 12-16 of pregnancy
# [6] = 4,000 mg/kg/day, Days 16-20 of pregnancy (posttreatment)
# [7] = 12,000 mg/kg/day, Days 0-6 of pregnancy (pretreatment)
# [8] = 12,000 mg/kg/day, Days 6-9 of pregnancy
# [9] = 12,000 mg/kg/day, Days 9-12 of pregnancy
# [10] = 12,000 mg/kg/day, Days 12-16 of pregnancy
# [11] = 12,000 mg/kg/day, Days 16-20 of pregnancy (posttreatment)
# [12] = 20,000 mg/kg/day, Days 0-6 of pregnancy (pretreatment)
# [13] = 20,000 mg/kg/day, Days 6-9 of pregnancy
# [14] = 20,000 mg/kg/day, Days 9-12 of pregnancy
# [15] = 20,000 mg/kg/day, Days 12-16 of pregnancy
# [16] = 20,000 mg/kg/day, Days 16-20 of pregnancy (posttreatment)
structure (smiles),measurement,setting,value
O=C(CO)[C@@H](O)[C@@H](O)[C@H](O)CO [D-tagatose],Females pregnant (%),"[1]; 4,000 mg/kg/day",100%
same,Fertility index,"[1]; 4,000 mg/kg/day",100
same,Litters with resorptions (%),"[1]; 4,000 mg/kg/day",78.3%
same,Number of dead fetuses,"[1]; 4,000 mg/kg/day",0
same,Number of females bearing viable fetuses,"[1]; 4,000 mg/kg/day",23
same,Number of females pregnant,"[1]; 4,000 mg/kg/day",23
same,Number of litters with resorptions,"[1]; 4,000 mg/kg/day",18
same,Total number of viable fetuses,"[1]; 4,000 mg/kg/day",354
same,Body weight (g) of viable fetuses,"[1]; 4,000 mg/kg/day",3.56 ± 0.21 g
same,Body weight (g) of viable fetuses: Female fetuses,"[1]; 4,000 mg/kg/day",3.49 ± 0.20 g
same,Body weight (g) of viable fetuses: Male fetuses,"[1]; 4,000 mg/kg/day",3.64 ± 0.22 g
same,Number of corpora lutea,"[1]; 4,000 mg/kg/day",17.7 ± 2.8
same,Number of female fetuses,"[1]; 4,000 mg/kg/day",8.0 ± 2.2
same,Number of implantation sites,"[1]; 4,000 mg/kg/day",16.5 ± 2.3
same,Number of males fetuses,"[1]; 4,000 mg/kg/day",7.4 ± 2.3
same,Number of resorptions,"[1]; 4,000 mg/kg/day",1.1 ± 0.9
same,Postimplantation loss = (resorptions/implantations),"[1]; 4,000 mg/kg/day",0.068 ± 0.051
same,Preimplantation loss = (corpora lutea-implants)/(corpora lutea),"[1]; 4,000 mg/kg/day",0.053 ± 0.113
same,Females pregnant (%),"[1]; 12,000 mg/kg/day",91.3%
same,Fertility index,"[1]; 12,000 mg/kg/day",91.3
same,Litters with resorptions (%),"[1]; 12,000 mg/kg/day",28.6%
same,Number of dead fetuses,"[1]; 12,000 mg/kg/day",0
same,Number of females bearing viable fetuses,"[1]; 12,000 mg/kg/day",21
same,Number of females pregnant,"[1]; 12,000 mg/kg/day",21
same,Number of litters with resorptions,"[1]; 12,000 mg/kg/day",6
same,Total number of viable fetuses,"[1]; 12,000 mg/kg/day",322
same,Body weight (g) of viable fetuses,"[1]; 12,000 mg/kg/day",3.75 ± 0.32 g
same,Body weight (g) of viable fetuses: Female fetuses,"[1]; 12,000 mg/kg/day",3.65 ± 0.35 g
same,Body weight (g) of viable fetuses: Male fetuses,"[1]; 12,000 mg/kg/day",3.84 ± 0.33 g
same,Number of corpora lutea,"[1]; 12,000 mg/kg/day",17.7 ± 2.9
same,Number of female fetuses,"[1]; 12,000 mg/kg/day",7.5 ± 2.2
same,Number of implantation sites,"[1]; 12,000 mg/kg/day",15.9 ± 2.9
same,Number of males fetuses,"[1]; 12,000 mg/kg/day",7.8 ± 2.3
same,Number of resorptions,"[1]; 12,000 mg/kg/day",0.5 ± 0.9
same,Postimplantation loss = (resorptions/implantations),"[1]; 12,000 mg/kg/day",0.043 ± 0.087
same,Preimplantation loss = (corpora lutea-implants)/(corpora lutea),"[1]; 12,000 mg/kg/day",0.094 ± 0.151
same,Females pregnant (%),"[1]; 20,000 mg/kg/day",100%
same,Fertility index,"[1]; 20,000 mg/kg/day",100
same,Litters with resorptions (%),"[1]; 20,000 mg/kg/day",54.2%
same,Number of dead fetuses,"[1]; 20,000 mg/kg/day",0
same,Number of females bearing viable fetuses,"[1]; 20,000 mg/kg/day",24
same,Number of females pregnant,"[1]; 20,000 mg/kg/day",24
same,Number of litters with resorptions,"[1]; 20,000 mg/kg/day",13
same,Total number of viable fetuses,"[1]; 20,000 mg/kg/day",350
same,Body weight (g) of viable fetuses,"[1]; 20,000 mg/kg/day",3.57 ± 0.24 g
same,Body weight (g) of viable fetuses: Female fetuses,"[1]; 20,000 mg/kg/day",3.49 ± 0.19 g
same,Body weight (g) of viable fetuses: Male fetuses,"[1]; 20,000 mg/kg/day",3.68 ± 0.27 g
same,Number of corpora lutea,"[1]; 20,000 mg/kg/day",17.4 ± 2.8
same,Number of female fetuses,"[1]; 20,000 mg/kg/day",7.1 ± 2.3
same,Number of implantation sites,"[1]; 20,000 mg/kg/day",15.3 ± 2.9
same,Number of males fetuses,"[1]; 20,000 mg/kg/day",7.5 ± 2.3
same,Number of resorptions,"[1]; 20,000 mg/kg/day",0.8 ± 0.8
same,Postimplantation loss = (resorptions/implantations),"[1]; 20,000 mg/kg/day",0.047 ± 0.049
same,Preimplantation loss = (corpora lutea-implants)/(corpora lutea),"[1]; 20,000 mg/kg/day",0.107 ± 0.162
same,Adverse effects in the dams or fetuses,"[1]; 4,000, 12,000 and 20,000 mg/kg body wt/day via gastric intubation, Days 6-15 of gestation, killed Day 20",No adverse effects in the dams or fetuses were found
same,Fetal weight versus control rats,"[1]; each tagatose group, total, males and females",weighed more than the fetuses of the control rats
same,Fetal weight relative to normal weight range for age,"[1]; fetuses from rats on tagatose, normal range 3.35-3.86 g males, 3.19-3.63 g females",within the normal weight range for their ages
same,Birth weight,"human; 70 kg human female, family history of low birth weight babies, five g twice daily",delivers a baby within the normal birth weight range
same,Food intake during pregnancy,"human; 70 kg human inclined toward obesity, five g twice daily",their average daily diet does not increase
same,Conception (increased fertility),"human; 70 kg human, history of difficulty conceiving, five g twice daily from one month before attempt",their attempt is successful and they are pregnant
same,Live birth,"human; 70 kg human, history of spontaneous abortions and stillbirths, five g twice daily",delivering a live birth
same,Food intake (g/animal),Female Crl:CD(SD)BR Rats; [2],144 ± 11 g/animal
same,Food intake (g/kg body wt/day),Female Crl:CD(SD)BR Rats; [2],103 ± 7 g/kg body wt/day
same,Food intake (g/animal),Female Crl:CD(SD)BR Rats; [3],70 ± 5 g/animal
same,Food intake (g/kg body wt/day),Female Crl:CD(SD)BR Rats; [3],84 ± 4 g/kg body wt/day
same,Food intake (g/animal),Female Crl:CD(SD)BR Rats; [4],78 ± 7 g/animal
same,Food intake (g/kg body wt/day),Female Crl:CD(SD)BR Rats; [4],91 ± 5 g/kg body wt/day
same,Food intake (g/animal),Female Crl:CD(SD)BR Rats; [5],112 ± 9 g/animal
same,Food intake (g/kg body wt/day),Female Crl:CD(SD)BR Rats; [5],90 ± 5 g/kg body wt/day
same,Food intake (g/animal),Female Crl:CD(SD)BR Rats; [6],129 ± 10 g/animal
same,Food intake (g/kg body wt/day),Female Crl:CD(SD)BR Rats; [6],94 ± 3 g/kg body wt/day
same,Food intake (g/animal),Female Crl:CD(SD)BR Rats; [7],148 ± 8 g/animal
same,Food intake (g/kg body wt/day),Female Crl:CD(SD)BR Rats; [7],104 ± 8 g/kg body wt/day
same,Food intake (g/animal),Female Crl:CD(SD)BR Rats; [8],58 ± 6 g/animal
same,Food intake (g/kg body wt/day),Female Crl:CD(SD)BR Rats; [8],69 ± 7 g/kg body wt/day
same,Food intake (g/animal),Female Crl:CD(SD)BR Rats; [9],73 ± 6 g/animal
same,Food intake (g/kg body wt/day),Female Crl:CD(SD)BR Rats; [9],84 ± 5 g/kg body wt/day
same,Food intake (g/animal),Female Crl:CD(SD)BR Rats; [10],105 ± 9 g/animal
same,Food intake (g/kg body wt/day),Female Crl:CD(SD)BR Rats; [10],83 ± 5 g/kg body wt/day
same,Food intake (g/animal),Female Crl:CD(SD)BR Rats; [11],137 ± 9 g/animal
same,Food intake (g/kg body wt/day),Female Crl:CD(SD)BR Rats; [11],99 ± 5 g/kg body wt/day
same,Food intake (g/animal),Female Crl:CD(SD)BR Rats; [12],149 ± 14 g/animal
same,Food intake (g/kg body wt/day),Female Crl:CD(SD)BR Rats; [12],107 ± 9 g/kg body wt/day
same,Food intake (g/animal),Female Crl:CD(SD)BR Rats; [13],43 ± 12 g/animal
same,Food intake (g/kg body wt/day),Female Crl:CD(SD)BR Rats; [13],51 ± 14 g/kg body wt/day
same,Food intake (g/animal),Female Crl:CD(SD)BR Rats; [14],67 ± 7 g/animal
same,Food intake (g/kg body wt/day),Female Crl:CD(SD)BR Rats; [14],80 ± 7 g/kg body wt/day
same,Food intake (g/animal),Female Crl:CD(SD)BR Rats; [15],94 ± 10 g/animal
same,Food intake (g/kg body wt/day),Female Crl:CD(SD)BR Rats; [15],77 ± 6 g/kg body wt/day
same,Food intake (g/animal),Female Crl:CD(SD)BR Rats; [16],138 ± 11 g/animal
same,Food intake (g/kg body wt/day),Female Crl:CD(SD)BR Rats; [16],102 ± 6 g/kg body wt/day
same,Weight loss in the dams,"Female Crl:CD(SD)BR Rats; except Day 6 to Day 9, attributed to laxation in the high dose groups",no consistent weight loss in the dams
same,Total daily food intake versus control group,"Female Crl:CD(SD)BR Rats; period on tagatose, Day 6 through Day 15",less than the daily food intakes of rats in the control group
